Measured values taken from patent publication US20180250306A1, “ALDEHYDE CONJUGATES AND USES THEREOF” (ALDEYRA THERAPEUTICS, INC., priority 2015, published 2018).

Tests used:
[1] = tested on: SSADH null mice; experiment: Eight-hour NS2 treatment (metabolite) study in wild type and SSADH null mice; assay type: in vivo
Excerpt: Mice were 22-23 days old on the day of treatment, and groups (n=3) were balanced for age and gender. […] Future studies in this model will encompass a dose-finding paradigm to ensure adequate target exposure; dose earlier in life; and increase group sizes.
The design of the study was as follows: • Treatment groups were balanced for date of birth, gender, and weight. • SSADH null mice were generated by crossing mice heterozygous for SSADH deficiency. Expected number of null progeny is 1 in 4. Seven SSADH null mice were generated from this breeding, of which three were assigned to group 3 and four were assigned to group 4.
• On the day of dosing, NS2 and vehicle were brought to room temperature. […] This working solution was prepared at room temperature, using aseptic technique in the animal dosing suite, and was used within one hour of preparation. • Dosing volume was ˜0.4 μL/g body weight for both mutant and wild-type subjects (note: the average body weight for the SSADH null mice is ˜4.9±0.9 g, and that of age-matched wild-type littermate is 10.2±0.9 g). DMSO total dose is weight normalized. • Leftover working solutions were discarded.
Organs were snap frozen in liquid nitrogen for biochemical analysis and stored at −80° C. • A terminal cardiac blood sample was obtained in a standard microtainer for serum collection. Serum was prepared by centrifugation for 10 minutes at […] (2500×g) and stored at −80° C. until analyses. […]
Plasma and tissue homogenates were shipped to the laboratory of Professor Gajja Salomons (VU Medical Center, Amsterdam, the Netherlands) on May 11, 2015. SSA, GHB and D2HG levels were assayed in the Salomons laboratory using the following published methods: 1) “Stable isotope dilution analysis of 4-hydroxybutyric acid: an accurate method for quantification in physiological fluids and the prenatal diagnosis of 4-hydroxybutyric aciduria,” Gibson et al., 1990, Biomed Environ Mass Spectrom. […]

[2] = hamster cheek pouch radiation; cited from earlier work
[3] = tested on: NFκB; experiment: NFκB translocation to the nucleus of cardiac fibroblasts (immunostaining); assay type: cell-based, neonatal rats; conditions: unstimulated cells; for cells with NFκB localization in nuclei: 24 hours (untreated 76.6%)
Method: Thirty hearts from neonatal rats were minced and digested (Neonatal Cardiomyocyte Isolation System, LK003303, Worthington). After tissue digestion and cell dissociation, cell suspensions were plated into 35 mm dishes or onto coverslips in wells of 24-well plates. Serum-free DMEM was added to the cell suspensions and the cells allowed to adhere for 2 hrs. After two hours, the cell suspension was removed and the adherent cells were fed with DMEM containing 10% fetal bovine serum (FBS). Cells were maintained in DMEM+10% FBS for 24 hours before treatments. Treatment duration was 24 hours.
Cell samples were divided in to 2 groups, stimulated with H2O2 or not stimulated with H2O2. […] The cells that were treated with H2O2 contained a final concentration of 0.001% in the wells. Drug was dissolved in 9.5% Captisol®, to a stock concentration of 5 mg/ml. […] Cells were treated for 24 hours then either fixed for immunostaining or collected as lysates for Western Blot analysis.
After 24 hours of treatment, cells on cover slips were rinsed twice with PBS, fixed in 1% paraformaldehyde for 10 minutes then rinsed in PBS for immunostaining. Cells were permeabilized for 18 minutes in 0.1% Triton-X 100 in PBS, then rinsed three times in PBS for 15 minutes each. Following the rinses, cover slips were incubated in Image-IT FX Signal Enhancer (Invitrogen) to reduce background intensities in images. Subsequently, cells were washed three times 15 min with PBS, followed by one hour of blocking in 10% Normal Goat Serum Cells and 0.05% Triton-X 100, and then incubated overnight in 4° C. with primary antibodies diluted in PBS with 2% Normal Goat Serum and 0.05% Triton-X 100. Antibodies were applied at the following concentrations: Alpha-Smooth Muscle Actin 1:200 (V5228, Sigma-Aldrich), Vimentin 1:200 (V6630, Sigma-Aldrich) and NFκB 1:200 (C-20, Santa Cruz Biotech). Following overnight incubation, cover slips were brought to room temperature over 10 minutes and then rinsed in PBS for 15 min. […]

[4] = SSADH null mice, 8 hours after single 10 mg/kg i.p.

CC(C)(O)c1nc2ccc(Cl)cc2cc1N [NS2, 2-(3-amino-6-chloroquinolin-2-yl)propan-2-ol]
GHB and D-2-HG in liver [1, 4]: tendency for decrease
change in levels of metabolites (GHB, SSA, D-2-HG) [1, 4]: no statistically significant changes
tolerability ([1]; mouse, in vivo, ip, 10 mg/kg): well-tolerated
overall fibrosis at the site of injury over time [2]: decrease
rate of recovery from injury [2]: significant increase
cells with NFκB localization in nuclei ([3]; 10 μM): 30.7%
cells with NFκB localization in nuclei ([3]; 100 μM): 35.7%
cells with nuclear NFκB ([3]; 1 mM, very few cells, not conclusive): no cells
